Target: T1, Human CARM1 (PRMT4) (Homo sapiens, UniProt Q86X55)
T1 construct: Flag-CARM1-His; made in house; host or cells: HEK 293F cells (BacMam baculovirus, pFastBacMam)
T1 sequence (Q86X55 2-585 isoform Q86X55-1): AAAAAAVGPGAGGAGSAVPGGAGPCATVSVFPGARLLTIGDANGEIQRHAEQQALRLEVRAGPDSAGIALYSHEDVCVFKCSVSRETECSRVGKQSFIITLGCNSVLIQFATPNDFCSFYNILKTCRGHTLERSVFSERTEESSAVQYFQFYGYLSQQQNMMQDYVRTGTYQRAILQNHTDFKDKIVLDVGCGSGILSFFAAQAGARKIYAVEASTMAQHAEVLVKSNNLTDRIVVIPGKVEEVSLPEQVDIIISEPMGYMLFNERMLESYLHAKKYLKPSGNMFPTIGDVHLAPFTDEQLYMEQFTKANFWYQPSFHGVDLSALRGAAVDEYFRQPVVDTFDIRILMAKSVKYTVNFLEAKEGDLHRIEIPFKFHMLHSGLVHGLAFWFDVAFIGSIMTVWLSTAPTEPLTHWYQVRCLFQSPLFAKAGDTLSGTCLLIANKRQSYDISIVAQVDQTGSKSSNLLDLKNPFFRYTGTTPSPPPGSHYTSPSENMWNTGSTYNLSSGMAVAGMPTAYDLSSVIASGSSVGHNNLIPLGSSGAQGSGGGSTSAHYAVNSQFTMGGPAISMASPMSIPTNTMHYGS
Assay: CARM1 biochemical assay (3H-SAM Flashplate, peptide substrate)
Conditions: read-out: CARM1_ IC50
In short: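 FLAG/His-tagged human CARM1 (isoform 1, Δ539-561, baculovirus-expressed), 0.25 nM, preincubated 30 min at room temperature with compound (2% DMSO) in 20 mM Bicine pH 7.6, then reacted with 30 nM 3H-SAM and 250 nM biotinylated H3 16-30 peptide (R26 monomethyl). Stopped with 300 uM cold SAM; labelled peptide captured on streptavidin Flashplate; % inhibition versus DMSO and 1 mM SAH controls fitted to a 4- or 3-parameter curve.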

IC50 [nM] | SMILES
4600 | NCCNCc1ccc(-c2ccc3ncn(C4CCNCC4)c3c2)cc1 [Compound 157]
161 | CC(C)n1ncc2c(N3CCOCC3)cc(-c3cccc(CN(C)CCNC4CC4)c3)nc21 [Compound 163]
185 | CC(C)n1ncc2c(C(=O)N3CCc4ccccc4C3)cc(-c3cccc(CN(C)CCN)c3)nc21 [Compound 23]
14 | CNCCN(C)Cc1cccc(-c2cc(Nc3ncc(C)s3)c3cnn(C(C)C)c3n2)c1 [Compound 20]
8.42 | CNCCN(C)Cc1cccc(-c2nc(NCc3cc(C)nn3C)c3cnn(C4CC4)c3n2)c1 [Compound 17]
264 | CNCCN(C)Cc1cccc(-c2cc(NS(C)(=O)=O)c3cnn(C(C)C)c3n2)c1 [Compound 170]
24300 | COc1cccc(CNC(=O)c2cncc(-c3ccc(CNCCN)cc3)c2)c1 [Compound 356]
31700 | CC(C)n1cnc2ccc(-c3ccc(CNCCN)cc3)cc21 [Compound 166]
79.7 | CCn1ncc2c(C(=O)N[C@@H](C)c3ccccc3)cc(-c3cccc(CN(C)CCNC)c3)nc21 [Compound 33]
10000 | CC(C)n1cnc2cc(-c3ccc(CN(C)CCN)cc3)ccc21 [Compound 46]
71.3 | CNCCN(C)Cc1cccc(-c2cc(C(=O)N(C)Cc3ccccc3)c3cnn(C(C)C)c3n2)c1 [Compound 24]
